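A five-concentration, 48-hour dose response in 96-well plates underlies each endpoint, interpolated linearly between surrounding concentrations. TGI marks complete inhibition of growth.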 Bounds are passed on as bounds.

Test systems include T-47D breast; SK-OV-3 ovarian; SN12C renal; SNB-19 CNS; COLO 205 colon; SF-539 CNS; CAKI-1 renal; HOP-92 NSCLC; A549 NSCLC; LOX IMVI melanoma; MDA-MB-231 breast; 786-0 renal; BT-549 breast; NCI-H522 lung; UACC-257 melanoma; NCI-H460 lung; HS 578T breast.
Common to all, as to test: DTP human tumour cell line panel, 48 h

`Nn1c(Cc2ccc([N+](=O)[O-])cc2)n[nH]c1=O`: the TGI with T-47D breast, in the assay on SK-OV-3 ovarian, in the assay on SN12C renal, in the assay on SNB-19 CNS, in the assay with COLO 205 colon and in the assay with SF-539 CNS was above 100 µM throughout. Further, the TGI in the assay with CAKI-1 renal, in the assay on HOP-92 NSCLC, in the assay on A549 NSCLC, with LOX IMVI melanoma, in the assay on MDA-MB-231 breast and in the assay with 786-0 renal was above 100 µM in each case. Further, the TGI in the assay on BT-549 breast, in the assay on NCI-H522 lung, in the assay on UACC-257 melanoma, in the assay with NCI-H460 lung and in the assay with HS 578T breast was above 100 µM each time.
Consider `Cn1c(-c2cccc([N+](=O)[O-])c2)[n+](C)c2ccccc21`, for which the TGI with T-47D breast, in the assay with SK-OV-3 ovarian, in the assay with SNB-19 CNS, with COLO 205 colon, with SF-539 CNS and in the assay on CAKI-1 renal was above 100 µM in each case. Further, the total growth inhibition concentration (TGI) with HOP-92 NSCLC, with A549 NSCLC, in the assay on LOX IMVI melanoma, with MDA-MB-231 breast, with 786-0 renal and in the assay on BT-549 breast was above 100 µM in each case. Besides, the TGI in the assay with UACC-257 melanoma, with NCI-H460 lung and with HS 578T breast was above 100 µM throughout.
Turning to `C=CC(Cl)(CBr)CCC(Br)C(C)(C)Cl` (centres undefined), the TGI in the assay on T-47D breast was 39.6 µM; with SK-OV-3 ovarian it was above 100 µM; in the assay with SN12C renal, 48.4 µM; in the assay with SNB-19 CNS it was 32.8 µM; with COLO 205 colon it was 29.5 µM; in the assay on SF-539 CNS it was 30.5 µM. For the same compound, the TGI in the assay with HOP-92 NSCLC came to 39.8 µM; in the assay on A549 NSCLC it was 89.3 µM; in the assay on MDA-MB-231 breast, 27.6 µM; in the assay on 786-0 renal, 28.1 µM; in the assay on BT-549 breast, 38.6 µM; with NCI-H522 lung, 24.4 µM. Also, the results for the total growth inhibition concentration (TGI) with UACC-257 melanoma, in the assay on NCI-H460 lung and in the assay with HS 578T breast were 27.5 µM, 28 µM and above 100 µM, respectively.
For `Cc1ccc(NC(=O)c2cc(S(=O)(=O)Nc3nc4ncccc4[nH]3)c(SSc3cc(Cl)c(C(=O)Nc4ccc(C)cc4)cc3S(=O)(=O)Nc3nc4ncccc4[nH]3)cc2Cl)cc1`, the concentration for total growth inhibition (TGI) in the assay on T-47D breast, in the assay with SK-OV-3 ovarian, in the assay with SN12C renal, with SNB-19 CNS, with COLO 205 colon and with SF-539 CNS was above 100 µM in each case. In addition, the TGI in the assay on CAKI-1 renal, with HOP-92 NSCLC, with A549 NSCLC, in the assay with LOX IMVI melanoma, in the assay on MDA-MB-231 breast and in the assay with 786-0 renal was above 100 µM each time. Moreover, the total growth inhibition concentration (TGI) in the assay on BT-549 breast, with NCI-H522 lung, in the assay on UACC-257 melanoma, in the assay on NCI-H460 lung and with HS 578T breast was above 100 µM throughout.
In the case of `O=C1CSC(c2cccc([N+](=O)[O-])c2)N1c1ccc(-n2c(-c3ccccc3)nc3ccccc3c2=O)cc1` (centres undefined), the TGI in the assay on T-47D breast, in the assay on SK-OV-3 ovarian, with SN12C renal, with SNB-19 CNS, in the assay with COLO 205 colon and with SF-539 CNS was above 100 µM each time. Moreover, the concentration for total growth inhibition (TGI) in the assay with CAKI-1 renal, in the assay on HOP-92 NSCLC, in the assay with A549 NSCLC, in the assay on LOX IMVI melanoma, in the assay on MDA-MB-231 breast and in the assay with 786-0 renal was above 100 µM throughout. Besides, the concentration for total growth inhibition (TGI) in the assay on BT-549 breast, in the assay with NCI-H522 lung, with UACC-257 melanoma, in the assay with NCI-H460 lung and with HS 578T breast was above 100 µM throughout.
For the compound `N#C/C(N)=C(\C#N)NC(=O)C(=O)N/C(C#N)=C(\N)C#N`, the TGI with T-47D breast, in the assay on SN12C renal, in the assay on SNB-19 CNS, with COLO 205 colon, with SF-539 CNS and in the assay on CAKI-1 renal was above 100 µM each time. In addition, the TGI in the assay with HOP-92 NSCLC, with A549 NSCLC, in the assay with LOX IMVI melanoma, with MDA-MB-231 breast, in the assay with 786-0 renal and in the assay with BT-549 breast was above 100 µM each time. Further, the concentration for total growth inhibition (TGI) with NCI-H522 lung, with UACC-257 melanoma, in the assay on NCI-H460 lung and with HS 578T breast was above 100 µM each time.
As for `Cc1ccnc(NC(NC(=O)c2ccccc2)(C(F)(F)F)C(F)(F)F)c1`, the total growth inhibition concentration (TGI) with T-47D breast, in the assay with SK-OV-3 ovarian, with SN12C renal, in the assay on SNB-19 CNS, with COLO 205 colon and in the assay on SF-539 CNS was above 100 µM each time. In addition, the TGI in the assay on CAKI-1 renal, with HOP-92 NSCLC, with A549 NSCLC, with LOX IMVI melanoma, in the assay with MDA-MB-231 breast and in the assay with 786-0 renal was above 100 µM throughout. Moreover, the total growth inhibition concentration (TGI) with BT-549 breast, in the assay with NCI-H522 lung, in the assay on UACC-257 melanoma and in the assay on HS 578T breast was above 100 µM each time.
On to `CCOc1ccc2nc(NC(=O)C(=O)C(c3cnc4ccccc4n3)[N+](=O)[O-])sc2c1` (centres undefined), for which the total growth inhibition concentration (TGI) with T-47D breast, in the assay on SK-OV-3 ovarian, in the assay on SN12C renal, in the assay on SNB-19 CNS, with SF-539 CNS and in the assay on CAKI-1 renal was above 100 µM each time. Also, the TGI in the assay with HOP-92 NSCLC, in the assay on A549 NSCLC, in the assay on LOX IMVI melanoma, in the assay on MDA-MB-231 breast, in the assay on 786-0 renal and with BT-549 breast was above 100 µM throughout. Also, the concentration for total growth inhibition (TGI) in the assay with NCI-H522 lung, in the assay on UACC-257 melanoma, in the assay with NCI-H460 lung and in the assay with HS 578T breast was above 100 µM throughout.

Usually TGI stands for the concentration giving total growth inhibition.

(Values after PubChem BioAssay (NCI).)
